Data as given in US20250145665A1, “MACROCYCLIC PEPTIDES USEFUL AS MODULATORS OF TNF ALPHA” (Bristol-Myers Squibb Company, priority 2023, published 2025).
pIC50: −log10 of the molar value. Where two headings read alike, the source gives them in different places. Starred links: 1 amine or outer side, 2 acyl side, 3 side chain; linkers in the order of their positions; H or OH if unused. Positions of bridges follow the written chain, without caps; N, C: chain ends. Non-standard residues stand in square brackets, D forms with d. Residues, ends and D or L forms follow the SMILES beside them. ξ: configuration not given here. *: point of attachment. X39 = Cn1nc(C(=O)NCc2ccc(-c3ccc(C[C@H](N[*:1])C(=O)[*:2])cc3)cc2)c2ccccc21; X5 = Cn1nc(C(=O)Nc2ccc(-c3ccc(C[C@H](N[*:1])C(=O)[*:2])cc3)cc2)c2ccccc21; X47 = O=C(Nc1ccc(-c2ccc(C[C@H](N[*:1])C(=O)[*:2])cc2)cc1)c1coc2ccccc12; Bip(4'-NH) = O=C([C@H](Cc1ccc(-c2ccc(N[*:3])cc2)cc1)N[*:1])[*:2]; Bip(4'-CONHMe) = CNC(=O)c1ccc(-c2ccc(C[C@H](N)C(=O)O)cc2)cc1; Indazole3carbonyl(1-CH2COOH) = O=C(O)Cn1nc(C(=O)*)c2ccccc21; Bip(4'-COOH) = N[C@@H](Cc1ccc(-c2ccc(C(=O)O)cc2)cc1)C(=O)O; X70 = O=C([C@H](Cc1ccc(-c2ccc(CN[*:3])cc2)cc1)N[*:1])[*:2]; X18 = N=C(NCCC[C@@H](N[*:1])C(=O)[*:2])NCCc1ccc(O)cc1; X58 = N=C(NCCC[C@@H](N[*:1])C(=O)[*:2])NCCc1cccc(N)c1; Ala(imidazol-2-yl) = N[C@@H](Cc1ncc[nH]1)C(=O)O; Ala(morpholin-4-yl) = N[C@@H](CN1CCOCC1)C(=O)O; Benzoyl(3-OCH2COOH) = O=C(O)COc1cccc(C(=O)*)c1; Benzoyl(4-OCH2COOH) = O=C(O)COc1ccc(C(=O)*)cc1; Bip = N[C@@H](Cc1ccc(-c2ccccc2)cc1)C(=O)O; X86 = O=C(O)Cn1ccc2cc(C(=O)*)ccc21; Cha = N[C@@H](CC1CCCCC1)C(=O)O; ξP = O=C(O)C1CCCN1; Sar = CNCC(=O)O

Biological target: TNFα (Homo sapiens, UniProt P01375)
Test: TNF-Induced HEK-Blue Assay
Format: cell-based
[1] = HEK-Blue-CD40L cells, NF-kB-driven secreted alkaline phosphatase reporter, TNFα 0.5 ng/ml, 18 h, read-out: TNF induced HEK-Blue assay IC50 value

Sequence of TNFα (P01375 77-233 limits assumed): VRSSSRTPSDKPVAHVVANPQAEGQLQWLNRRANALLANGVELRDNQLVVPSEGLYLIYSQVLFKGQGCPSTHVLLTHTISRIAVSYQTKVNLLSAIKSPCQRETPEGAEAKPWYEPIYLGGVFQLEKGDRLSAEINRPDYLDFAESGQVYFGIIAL

Compound | pIC50 [1] | pIC50
CC[C@H](C)[C@@H]1NC(=O)[C@@H](CCCNC(=N)N)NC(=O)[C@H](CC(=O)O)NC(=O)[C@H](Cc2cnc[nH]2)NC(=O)CN(C)C(=O)[C@H](Cc2ccc(-c3ccc(NC(=O)c4ccc(OCC(=O)O)cc4)cc3)cc2)NC(=O)[C@H](Cc2ccc(-c3ccc(C(=O)NC)cc3)cc2)NC(=O)[C@H](CC2CCCCC2)NC(=O)CSC[C@@H](C(=O)NCC(N)=O)NC(=O)[C@H](CC(C)C)NC(=O)[C@H](Cc2cnc[nH]2)NC(=O)[C@H](C(C)C)NC(=O)[C@@H]2CCCN2C1=O [Example 395] ({CH2CO}-[Cha][Bip(4'-CONHMe)][Bip(4'-NH)](Benzoyl(4-OCH2COOH))[Sar]HD[dR]IPVHLCG-NH2; thioether N-13) | > 7.30 | 
CC[C@H](C)[C@@H]1NC(=O)[C@@H](CCCNC(=N)N)NC(=O)[C@H](CC(=O)O)NC(=O)[C@H](Cc2cnc[nH]2)NC(=O)CN(C)C(=O)[C@H](Cc2ccc(-c3ccc(C(=O)NC)cc3)cc2)NC(=O)[C@H](Cc2ccc(-c3ccccc3)cc2)NC(=O)[C@H](CC2CCCCC2)NC(=O)CSC[C@@H](C(=O)NCC(N)=O)NC(=O)[C@H](CC(C)C)NC(=O)[C@H](Cc2cnc[nH]2)NC(=O)[C@H](C(C)C)NC(=O)[C@@H]2CCCN2C1=O [Example 396] ({CH2CO}-[Cha][Bip][Bip(4'-CONHMe)][Sar]HD[dR]IPVHLCG-NH2; thioether N-13) | > 7.30 | 
CC[C@H](C)[C@@H]1NC(=O)[C@@H](CCCNC(=N)N)NC(=O)[C@H](CC(=O)O)NC(=O)[C@H](Cc2cnc[nH]2)NC(=O)CN(C)C(=O)[C@H](Cc2ccc(-c3ccccc3)cc2)NC(=O)[C@H](Cc2ccc(-c3ccc(C(=O)NC)cc3)cc2)NC(=O)[C@H](CC2CCCCC2)NC(=O)CSC[C@@H](C(=O)NCC(N)=O)NC(=O)[C@H](CC(C)C)NC(=O)[C@H](Cc2cnc[nH]2)NC(=O)[C@H](C(C)C)NC(=O)[C@@H]2CCCN2C1=O [Example 397] ({CH2CO}-[Cha][Bip(4'-CONHMe)][Bip][Sar]HD[dR]IPVHLCG-NH2; thioether N-13) | 6.70 to 7.30 | 
CC(C)C[C@@H]1NC(=O)[C@H](CCCNC(=N)N)NC(=O)[C@H](C(C)C)NC(=O)[C@@H]2CCCN2C(=O)[C@H](C(C)C)NC(=O)[C@@H](CCCNC(=N)N)NC(=O)[C@H](CC(=O)O)NC(=O)[C@@H]2CCCN2C(=O)CN(C)C(=O)[C@H](Cc2ccc(-c3ccc(NC(=O)c4ccc5c(ccn5CC(=O)O)c4)cc3)cc2)NC(=O)[C@H](Cc2ccc(-c3ccccc3)cc2)NC(=O)[C@H](CN2CCOCC2)NC(=O)CSC[C@@H](C(=O)NCC(N)=O)NC1=O [Example 398] ({CH2CO}-[Ala(morpholin-4-yl)][Bip][Bip(4'-NH)](X86)[Sar]PD[dR]VPVRLCG-NH2; thioether N-13) | > 7.30 | 
CC[C@H](C)[C@@H]1NC(=O)[C@@H]2CCCN2C(=O)[C@H]([C@@H](C)CC)NC(=O)[C@@H](CCCNC(=N)N)NC(=O)[C@H](CC(=O)O)NC(=O)[C@H](Cc2ccccc2)NC(=O)CN(C)C(=O)[C@H](Cc2ccc(-c3ccc(CNC(=O)c4cccc(OCC(=O)O)c4)cc3)cc2)NC(=O)[C@H](Cc2ccc(-c3ccccc3)cc2)NC(=O)[C@H](CC2CCCCC2)NC(=O)CSC[C@@H](C(=O)NCC(N)=O)NC(=O)[C@H](CC(C)C)NC(=O)[C@H](Cc2ncc[nH]2)NC1=O [Example 399] ({CH2CO}-[Cha][Bip][X70](Benzoyl(3-OCH2COOH))[Sar]FD[dR]IPI[Ala(imidazol-2-yl)]LCG-NH2; thioether N-13) | 5.70 to 6.70 | 
CC[C@H](C)[C@@H]1NC(=O)[C@@H]2CCCN2C(=O)[C@H]([C@@H](C)CC)NC(=O)[C@@H](CCCNC(=N)N)NC(=O)[C@H](CC(=O)O)NC(=O)[C@H](Cc2ccccc2)NC(=O)CN(C)C(=O)[C@H](Cc2ccc(-c3ccc(CNC(=O)c4nn(C)c5ccccc45)cc3)cc2)NC(=O)[C@H](Cc2ccc(-c3ccccc3)cc2)NC(=O)[C@H](CC2CCCCC2)NC(=O)CSC[C@@H](C(=O)NCC(N)=O)NC(=O)[C@H](CC(C)C)NC(=O)[C@H](Cc2cnc[nH]2)NC1=O [Example 400] ({CH2CO}-[Cha][Bip][X39][Sar]FD[dR]IPIHLCG-NH2; thioether N-13) | 5.70 to 6.70 | 
CC[C@H](C)[C@@H]1NC(=O)[C@@H]2CCCN2C(=O)[C@H]([C@@H](C)CC)NC(=O)[C@@H](CCCNC(=N)N)NC(=O)[C@H](CC(=O)O)NC(=O)[C@H](Cc2ccccc2)NC(=O)CN(C)C(=O)[C@H](Cc2ccc(-c3ccc(NC(=O)c4coc5ccccc45)cc3)cc2)NC(=O)[C@H](Cc2ccc(-c3ccccc3)cc2)NC(=O)[C@H](CC2CCCCC2)NC(=O)CSC[C@@H](C(=O)NCC(N)=O)NC(=O)[C@H](CC(C)C)NC(=O)[C@H](Cc2ncc[nH]2)NC1=O [Example 401] ({CH2CO}-[Cha][Bip][X47][Sar]FD[dR]IPI[Ala(imidazol-2-yl)]LCG-NH2; thioether N-13) | 6.70 to 7.30 | 
CC[C@H](C)[C@@H]1NC(=O)[C@@H]2CCCN2C(=O)[C@H]([C@@H](C)CC)NC(=O)[C@@H](CCCNC(=N)N)NC(=O)[C@H](CC(=O)O)NC(=O)[C@H](Cc2ccccc2)NC(=O)CN(C)C(=O)[C@H](Cc2ccc(-c3ccc(NC(=O)c4nn(C)c5ccccc45)cc3)cc2)NC(=O)[C@H](Cc2ccc(-c3ccccc3)cc2)NC(=O)[C@H](CC2CCCCC2)NC(=O)CSC[C@@H](C(=O)NCC(N)=O)NC(=O)[C@H](CC(C)C)NC(=O)[C@H](Cc2ncc[nH]2)NC1=O [Example 402] ({CH2CO}-[Cha][Bip][X5][Sar]FD[dR]IPI[Ala(imidazol-2-yl)]LCG-NH2; thioether N-13) | 6.70 to 7.30 | 
CC(C)C[C@@H]1NC(=O)[C@H](CCCNC(=N)N)NC(=O)[C@H](C(C)C)NC(=O)[C@@H]2CCCN2C(=O)[C@H](C(C)C)NC(=O)[C@@H](CCCNC(=N)NCCc2ccc(O)cc2)NC(=O)[C@H](CC(=O)O)NC(=O)[C@@H]2CCCN2C(=O)CN(C)C(=O)[C@H](Cc2ccc(-c3ccc(NC(=O)c4nn(CC(=O)O)c5ccccc45)cc3)cc2)NC(=O)[C@H](Cc2ccc(-c3ccccc3)cc2)NC(=O)[C@H](CN2CCOCC2)NC(=O)CSC[C@@H](C(=O)NCC(N)=O)NC1=O [Example 403] ({CH2CO}-[Ala(morpholin-4-yl)][Bip][Bip(4'-NH)](Indazole3carbonyl(1-CH2COOH))[Sar]PD[X18]VPVRLCG-NH2; thioether N-13) |  | 6.70 to 7.30
CC(C)C[C@@H]1NC(=O)[C@H](CCCNC(=N)N)NC(=O)[C@H](C(C)C)NC(=O)C2CCCN2C(=O)[C@H](C(C)C)NC(=O)[C@@H](CCCNC(=N)NCCc2ccc(O)cc2)NC(=O)[C@H](CC(=O)O)NC(=O)[C@@H]2CCCN2C(=O)CN(C)C(=O)[C@H](Cc2ccc(-c3ccc(NC(=O)c4nn(CC(=O)O)c5ccccc45)cc3)cc2)NC(=O)[C@H](Cc2ccc(-c3ccc(C(=O)O)cc3)cc2)NC(=O)[C@H](CN2CCOCC2)NC(=O)CSC[C@@H](C(=O)NCC(N)=O)NC1=O (some centres unmarked) [Example 404] ({CH2CO}-[Ala(morpholin-4-yl)][Bip(4'-COOH)][Bip(4'-NH)](Indazole3carbonyl(1-CH2COOH))[Sar]PD[X18]V[ξP]VRLCG-NH2; thioether N-13) |  | 6.70 to 7.30
CC(C)C[C@@H]1NC(=O)[C@H](CCCNC(=N)N)NC(=O)[C@H](C(C)C)NC(=O)C2CCCN2C(=O)[C@H](C(C)C)NC(=O)[C@@H](CCCNC(=N)NCCc2cccc(N)c2)NC(=O)[C@H](CC(=O)O)NC(=O)[C@@H]2CCCN2C(=O)CN(C)C(=O)[C@H](Cc2ccc(-c3ccc(NC(=O)c4nn(CC(=O)O)c5ccccc45)cc3)cc2)NC(=O)[C@H](Cc2ccc(-c3ccccc3)cc2)NC(=O)[C@H](CN2CCOCC2)NC(=O)CSC[C@@H](C(=O)NCC(N)=O)NC1=O (some centres unmarked) [Example 405] ({CH2CO}-[Ala(morpholin-4-yl)][Bip][Bip(4'-NH)](Indazole3carbonyl(1-CH2COOH))[Sar]PD[X58]V[ξP]VRLCG-NH2; thioether N-13) |  | 6.70 to 7.30
